Reference: US20240383911A1, “AZAINDAZOLE MACROCYCLE COMPOUNDS AND USES THEREOF” (BROADENBIO CO., LTD, priority 2021, published 2024)

Key:
[1] = biological target: HPK1 (Homo sapiens, UniProt Q92918); experiment: HPK1 kinase activity inhibition test (ADP-Glo, luminescence); type: biochemical; settings: 2 μM ATP, 5 nM HPK1, read-out: IC50, inhibitory effects on HPK1 kinase activity
Procedure, shortened: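 Autophosphorylation assay without added substrate: HPK1 preincubated with compound 10 min at 25 °C, then ATP added for 60 min at 25 °C; final DMSO 0.5%. ADP measured by ADP-Glo luminescence; IC50 from four-parameter nonlinear fit.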

[2] = biological target: KDR (Homo sapiens, UniProt P35968); experiment: KDR kinase activity inhibition test (HTRF); type: biochemical; settings: read-out: IC50, inhibitory effects on KDR kinase activity
Chain of KDR (P35968 20-1356): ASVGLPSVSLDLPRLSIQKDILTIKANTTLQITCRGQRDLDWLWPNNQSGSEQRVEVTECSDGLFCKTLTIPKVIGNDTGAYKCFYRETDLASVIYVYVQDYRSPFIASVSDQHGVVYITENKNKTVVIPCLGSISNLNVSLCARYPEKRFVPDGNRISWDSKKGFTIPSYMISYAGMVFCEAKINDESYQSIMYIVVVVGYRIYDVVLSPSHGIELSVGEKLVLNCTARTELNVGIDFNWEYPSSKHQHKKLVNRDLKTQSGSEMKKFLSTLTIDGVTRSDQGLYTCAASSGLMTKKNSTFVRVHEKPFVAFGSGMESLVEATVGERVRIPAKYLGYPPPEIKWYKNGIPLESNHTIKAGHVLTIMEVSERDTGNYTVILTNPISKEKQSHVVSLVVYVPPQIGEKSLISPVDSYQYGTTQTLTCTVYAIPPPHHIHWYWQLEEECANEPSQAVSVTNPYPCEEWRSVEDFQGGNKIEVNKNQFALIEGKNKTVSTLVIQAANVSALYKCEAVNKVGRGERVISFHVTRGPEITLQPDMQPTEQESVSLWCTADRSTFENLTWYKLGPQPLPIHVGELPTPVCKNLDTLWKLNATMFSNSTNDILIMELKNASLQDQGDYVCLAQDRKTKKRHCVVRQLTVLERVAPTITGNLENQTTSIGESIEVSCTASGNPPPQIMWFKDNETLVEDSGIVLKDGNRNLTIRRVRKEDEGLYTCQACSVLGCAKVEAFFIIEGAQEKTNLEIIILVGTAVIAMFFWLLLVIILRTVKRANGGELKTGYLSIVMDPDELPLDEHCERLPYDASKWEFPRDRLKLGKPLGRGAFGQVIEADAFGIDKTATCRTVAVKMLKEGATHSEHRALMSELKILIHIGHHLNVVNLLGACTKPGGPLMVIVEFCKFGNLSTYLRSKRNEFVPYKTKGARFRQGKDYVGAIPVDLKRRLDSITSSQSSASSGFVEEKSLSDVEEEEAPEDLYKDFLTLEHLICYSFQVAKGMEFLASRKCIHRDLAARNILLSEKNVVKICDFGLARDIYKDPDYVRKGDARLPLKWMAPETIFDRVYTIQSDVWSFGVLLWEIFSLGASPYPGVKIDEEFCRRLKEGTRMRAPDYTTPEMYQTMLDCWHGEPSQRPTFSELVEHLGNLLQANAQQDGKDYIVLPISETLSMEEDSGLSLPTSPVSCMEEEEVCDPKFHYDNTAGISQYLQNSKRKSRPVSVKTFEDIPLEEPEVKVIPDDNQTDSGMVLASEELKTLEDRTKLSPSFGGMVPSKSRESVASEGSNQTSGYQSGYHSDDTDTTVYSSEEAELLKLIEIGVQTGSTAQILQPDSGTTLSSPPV
Method: Tested compounds: compounds prepared in the Examples of this invention.
Prepare compound stock solution: dissolve the test compound in 100% DMSO to make a 10 mM stock solution. Dilute the stock solution of the test compound by 5 times with 100% DMSO, make a 4-fold equal dilution in a 96-well dilution plate, add 1 μL of the compound to 39 μL of kinase reaction buffer (1×kinase buffer, 5 mM MgCl2, 1 mM DTT), and shake on a microplate shaker for 20 minutes. 4×Positive control (4 μL of positive compound solution of the starting concentration, add 196 μL of kinase buffer) and 4×negative control (4 μL of 100% DMSO, add 196 μL of kinase buffer).
(1) Use 1×kinase reaction buffer to prepare 2.5×KDR kinase solution (250 μM), transfer 2 μL of the kinase solution to the 384 reaction plate, and add 1 μL of the test compound solution of gradient concentration to the 384 reaction plate (Greiner, Cat #784075), centrifuge for 1 minute (1000 rpm), and incubate at 25° C. for 10 minutes.
(2) Use 1×kinase reaction buffer to prepare 2.5×TK-substrate-biotin (2.5 μM) and 2.5×ATP (2.5 μM), mix well, and add 2 μL of the TK-substrate-biotin/ATP solution to the 384 reaction plate, centrifuge for 30 seconds (1000 rpm), and incubate at 25° C. for 40 minutes.
(3) Use HTRF detection buffer to prepare 2×Sa-XL 665 (125 nM) and 1×TK-antibody-Cryptate. Add 5 μL of a mixture of Sa-XL 665 and TK-antibody-Cryptate solutions to each well, centrifuge for 30 seconds (1000 rpm), and react at room temperature for 1 hour.
(4) The fluorescence signal is read using a Biotek multi-function plate reader, and the IC50 (half inhibitory concentration) of the compound is obtained using a four-coefficient nonlinear fitting formula.

Chain of HPK1 (Q92918 whole entry): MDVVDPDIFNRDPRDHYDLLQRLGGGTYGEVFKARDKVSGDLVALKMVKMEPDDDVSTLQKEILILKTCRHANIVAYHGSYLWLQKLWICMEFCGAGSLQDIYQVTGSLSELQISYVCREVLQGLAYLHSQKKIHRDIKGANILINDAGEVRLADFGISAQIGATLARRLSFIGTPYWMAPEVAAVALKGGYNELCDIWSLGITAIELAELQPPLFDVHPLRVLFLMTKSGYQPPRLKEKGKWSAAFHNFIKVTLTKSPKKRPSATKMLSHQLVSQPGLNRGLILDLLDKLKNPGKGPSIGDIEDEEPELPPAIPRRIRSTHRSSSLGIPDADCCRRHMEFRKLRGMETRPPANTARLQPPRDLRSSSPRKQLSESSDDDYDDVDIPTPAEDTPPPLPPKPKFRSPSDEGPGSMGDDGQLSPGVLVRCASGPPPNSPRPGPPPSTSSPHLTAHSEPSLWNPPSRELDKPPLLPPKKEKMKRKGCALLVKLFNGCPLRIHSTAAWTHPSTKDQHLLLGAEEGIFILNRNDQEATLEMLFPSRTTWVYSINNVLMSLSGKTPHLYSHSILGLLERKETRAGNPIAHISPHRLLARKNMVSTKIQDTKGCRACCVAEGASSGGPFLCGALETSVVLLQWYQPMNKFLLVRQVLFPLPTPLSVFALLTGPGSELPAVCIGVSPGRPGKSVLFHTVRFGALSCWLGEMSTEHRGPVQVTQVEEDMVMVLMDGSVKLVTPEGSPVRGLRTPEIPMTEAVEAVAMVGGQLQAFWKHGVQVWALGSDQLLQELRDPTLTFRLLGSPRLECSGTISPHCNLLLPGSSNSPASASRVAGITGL

SMILES | IC50 [1] [nM] | IC50 [2] [nM]
CN1CCN(c2ccc3cc2OCCOCc2cccc(F)c2-c2cc4c-3n[nH]c4cn2)CC1 [Compound 9, 16-fluoro-5-(4-methylpiperazin-1-yl)-7,10-dioxa-19,22,23-triazapentacyclo[16.5.2.1^2,6.0^12,17.0^21,24]hexacosa-1(23),2(26),3,5,12,14,16,18,20,24-decaene] | ≤ 5 | ≤ 5
CN1CCN(c2ncc3cc2OCCCOc2cccc(F)c2-c2cc4c-3n[nH]c4cn2)CC1 [Compound 3, 16-fluoro-5-(4-methylpiperazin-1-yl)-7,11-dioxa-4,19,22,23-tetraazapentacyclo[16.5.2.1^2,6.0^12,17.0^21,24]hexacosa-1(23),2(26),3,5,12,14,16,18,20,24-decaene] | ≤ 5 | 5 to 50
CN1CCN(c2ccc3cc2OCCCOc2cccc(F)c2-c2cc4c-3n[nH]c4cn2)CC1 [Compound 6, 16-fluoro-5-(4-methylpiperazin-1-yl)-7,11-dioxa-19,22,23-triazapentacyclo[16.5.2.1^2,6.0^12,17.0^21,24]hexacosa-1(23),2(26),3,5,12,14,16,18,20,24-decaene] | ≤ 5 | ≤ 5
